The values that follow come from article PMC3528106 (Neurobiology of disease, 2012).

The target of one data set is CYP3A4 (Homo sapiens, UniProt P08684). As to the kind of experiment: CYP3A4 inhibition in liver cells. The class given is in vitro ADME. The following applies: read-out: CYP3A4 IC50; inhibition of cytochrome P450 enzymes in liver cells.
The next data set has as its system Hct116 cells. As to the kind of experiment: Cell proliferation inhibition assay, Hct116. The following applies: for IC50: read-out: Proliferation inhibition Hct116, IC50, 72h. The format is cell-based, human.
A further data set relates to STHdhQ111 striatal cells. As to the kind of experiment: XTT assay of metabolic activity in STHdhQ111 striatal cells. The class given is cell-based, mouse. The following applies: 24 and 48 hrs. In general terms: Tetrazolium assays rely on reduction of a dye to a coloured formazan, in cell work by metabolically active cells.
The subject of data set [1] is Vdr and Dhrs4 expression in STHdhQ111 cells. Description: Expression of Vdr and Dhrs4 in STHdhQ111 striatal cells. The format is cell-based, mouse.
A further data set deals with CYP2D6 (Homo sapiens, UniProt P10635). Description: CYP2D6 inhibition in liver cells. The format is in vitro ADME. The following applies: read-out: CYP2D6 IC50; inhibition of cytochrome P450 enzymes in liver cells.
Data set [2] relates to class I and class II HDAC enzymes. Description: HDAC subtype selectivity profile from IC50 values. The following applies: in words.
In another data set the test system is IMR90 cells. The format is cell-based, human. The following applies: read-out: Proliferation inhibition IMR90, IC50; 72h.
Another data set deals with HDAC2 (Homo sapiens, UniProt Q92769). As to the kind of experiment: HDAC2 inhibition, Fluor-de-Lys fluorescence assay with purified enzyme.
The subject of data set [3] is HD-related gene expression in striatum, R6/2 transgenic mice. Description: Real-time PCR of HD-related genes in striatum of R6/2 transgenic mice.
Another data set has as its target T1, HDAC8 (Homo sapiens, UniProt Q9BY41).
T1 sequence (Q9BY41 1-377): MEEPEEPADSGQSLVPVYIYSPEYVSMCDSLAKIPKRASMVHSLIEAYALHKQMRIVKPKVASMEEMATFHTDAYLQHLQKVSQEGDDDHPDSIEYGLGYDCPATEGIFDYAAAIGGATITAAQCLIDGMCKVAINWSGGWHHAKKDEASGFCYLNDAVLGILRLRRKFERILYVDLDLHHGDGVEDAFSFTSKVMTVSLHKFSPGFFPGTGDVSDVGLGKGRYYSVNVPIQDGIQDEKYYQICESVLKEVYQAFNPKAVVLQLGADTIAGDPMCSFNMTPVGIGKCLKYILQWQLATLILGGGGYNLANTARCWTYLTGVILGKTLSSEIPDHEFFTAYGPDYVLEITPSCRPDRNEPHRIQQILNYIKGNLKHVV
Description: HDAC8 inhibition, recombinant enzyme cell-free assay. The conditions noted are these: read-out: IC50 for Class I HDAC enzymes: HDAC8; Table 1.

The target of a further data set is HDAC5 (Homo sapiens, UniProt Q9UQL6). Description: HDAC5 inhibition. The conditions noted are these: read-out: IC50 for Class II HDAC enzymes: HDAC5; Table 1.
Another data set addresses T2, HDAC7 (Homo sapiens, UniProt Q8WUI4).
T2 sequence (Q8WUI4 1-952): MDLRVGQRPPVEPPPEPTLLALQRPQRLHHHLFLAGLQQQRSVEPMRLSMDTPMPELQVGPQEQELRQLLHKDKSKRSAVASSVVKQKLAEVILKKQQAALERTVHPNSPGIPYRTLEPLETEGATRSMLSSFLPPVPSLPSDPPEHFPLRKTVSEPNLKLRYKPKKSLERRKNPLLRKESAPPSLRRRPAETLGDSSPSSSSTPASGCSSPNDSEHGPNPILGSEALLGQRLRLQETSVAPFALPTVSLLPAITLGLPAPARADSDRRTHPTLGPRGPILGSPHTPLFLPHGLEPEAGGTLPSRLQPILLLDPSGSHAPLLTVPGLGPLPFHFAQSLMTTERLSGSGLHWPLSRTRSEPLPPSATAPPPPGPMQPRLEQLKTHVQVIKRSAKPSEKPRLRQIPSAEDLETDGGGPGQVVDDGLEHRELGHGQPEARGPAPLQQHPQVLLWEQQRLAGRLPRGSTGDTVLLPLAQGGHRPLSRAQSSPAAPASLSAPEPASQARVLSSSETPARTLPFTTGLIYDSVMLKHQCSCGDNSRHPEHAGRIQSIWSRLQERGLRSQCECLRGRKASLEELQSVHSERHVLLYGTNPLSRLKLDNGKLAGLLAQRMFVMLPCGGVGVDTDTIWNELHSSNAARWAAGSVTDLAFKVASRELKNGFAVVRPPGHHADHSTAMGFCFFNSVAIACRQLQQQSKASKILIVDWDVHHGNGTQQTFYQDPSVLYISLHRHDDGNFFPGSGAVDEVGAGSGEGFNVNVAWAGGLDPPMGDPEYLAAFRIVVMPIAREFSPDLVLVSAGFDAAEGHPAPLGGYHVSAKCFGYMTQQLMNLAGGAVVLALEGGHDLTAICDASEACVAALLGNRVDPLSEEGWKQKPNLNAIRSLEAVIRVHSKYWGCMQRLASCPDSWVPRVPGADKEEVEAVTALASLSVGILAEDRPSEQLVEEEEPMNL
Description: HDAC7 inhibition. The following applies: read-out: IC50 for Class II HDAC enzymes: HDAC7; Table 1.

In another data set the target is HDAC4 (Homo sapiens, UniProt P56524). As to the kind of experiment: HDAC4 inhibition. The following applies: read-out: IC50 for Class II HDAC enzymes: HDAC4; Table 1.

Like-named read-outs stand apart in the source and are kept apart here.

Sequence of CYP2D6 (P10635 whole entry): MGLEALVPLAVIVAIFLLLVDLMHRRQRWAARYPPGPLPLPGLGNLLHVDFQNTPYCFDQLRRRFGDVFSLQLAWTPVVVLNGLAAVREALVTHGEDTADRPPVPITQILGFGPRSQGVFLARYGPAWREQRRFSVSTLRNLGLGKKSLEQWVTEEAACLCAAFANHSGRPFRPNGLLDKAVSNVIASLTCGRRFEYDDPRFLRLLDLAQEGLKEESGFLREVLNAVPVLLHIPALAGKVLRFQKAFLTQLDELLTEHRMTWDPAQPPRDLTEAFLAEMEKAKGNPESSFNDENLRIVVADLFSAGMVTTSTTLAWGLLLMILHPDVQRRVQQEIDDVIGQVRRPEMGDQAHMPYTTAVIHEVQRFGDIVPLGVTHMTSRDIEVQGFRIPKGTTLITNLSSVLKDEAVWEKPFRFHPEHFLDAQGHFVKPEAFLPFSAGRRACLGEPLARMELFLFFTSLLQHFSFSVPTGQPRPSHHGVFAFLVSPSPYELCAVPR
Sequence of CYP3A4 (P08684 whole entry): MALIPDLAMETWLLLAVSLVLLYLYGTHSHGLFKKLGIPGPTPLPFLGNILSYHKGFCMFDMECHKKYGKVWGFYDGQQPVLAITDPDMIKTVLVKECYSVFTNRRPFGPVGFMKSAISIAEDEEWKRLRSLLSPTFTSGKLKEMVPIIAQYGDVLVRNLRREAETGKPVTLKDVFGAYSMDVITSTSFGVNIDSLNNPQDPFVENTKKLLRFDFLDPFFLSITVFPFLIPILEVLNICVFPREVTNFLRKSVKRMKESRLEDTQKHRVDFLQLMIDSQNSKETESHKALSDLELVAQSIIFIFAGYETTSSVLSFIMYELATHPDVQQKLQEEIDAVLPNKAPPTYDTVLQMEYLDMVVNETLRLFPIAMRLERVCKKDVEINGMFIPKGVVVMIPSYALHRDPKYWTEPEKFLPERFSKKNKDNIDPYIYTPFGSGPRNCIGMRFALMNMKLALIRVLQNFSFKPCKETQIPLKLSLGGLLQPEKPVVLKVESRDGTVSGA
Sequence of HDAC2 (Q92769 whole entry): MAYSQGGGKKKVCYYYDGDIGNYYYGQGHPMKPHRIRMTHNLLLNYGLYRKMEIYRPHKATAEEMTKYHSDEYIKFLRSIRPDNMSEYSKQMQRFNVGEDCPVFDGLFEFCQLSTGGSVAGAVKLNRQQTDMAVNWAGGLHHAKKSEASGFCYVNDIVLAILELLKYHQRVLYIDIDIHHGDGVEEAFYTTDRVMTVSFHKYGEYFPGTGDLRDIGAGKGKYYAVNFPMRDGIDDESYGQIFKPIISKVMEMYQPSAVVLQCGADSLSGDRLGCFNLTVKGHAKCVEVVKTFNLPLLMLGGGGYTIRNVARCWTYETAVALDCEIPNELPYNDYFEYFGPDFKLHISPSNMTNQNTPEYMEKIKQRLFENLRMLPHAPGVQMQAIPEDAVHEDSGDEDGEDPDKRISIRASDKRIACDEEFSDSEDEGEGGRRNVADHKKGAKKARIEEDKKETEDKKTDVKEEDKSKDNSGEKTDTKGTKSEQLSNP
Sequence of HDAC4 (P56524 whole entry, species assumed): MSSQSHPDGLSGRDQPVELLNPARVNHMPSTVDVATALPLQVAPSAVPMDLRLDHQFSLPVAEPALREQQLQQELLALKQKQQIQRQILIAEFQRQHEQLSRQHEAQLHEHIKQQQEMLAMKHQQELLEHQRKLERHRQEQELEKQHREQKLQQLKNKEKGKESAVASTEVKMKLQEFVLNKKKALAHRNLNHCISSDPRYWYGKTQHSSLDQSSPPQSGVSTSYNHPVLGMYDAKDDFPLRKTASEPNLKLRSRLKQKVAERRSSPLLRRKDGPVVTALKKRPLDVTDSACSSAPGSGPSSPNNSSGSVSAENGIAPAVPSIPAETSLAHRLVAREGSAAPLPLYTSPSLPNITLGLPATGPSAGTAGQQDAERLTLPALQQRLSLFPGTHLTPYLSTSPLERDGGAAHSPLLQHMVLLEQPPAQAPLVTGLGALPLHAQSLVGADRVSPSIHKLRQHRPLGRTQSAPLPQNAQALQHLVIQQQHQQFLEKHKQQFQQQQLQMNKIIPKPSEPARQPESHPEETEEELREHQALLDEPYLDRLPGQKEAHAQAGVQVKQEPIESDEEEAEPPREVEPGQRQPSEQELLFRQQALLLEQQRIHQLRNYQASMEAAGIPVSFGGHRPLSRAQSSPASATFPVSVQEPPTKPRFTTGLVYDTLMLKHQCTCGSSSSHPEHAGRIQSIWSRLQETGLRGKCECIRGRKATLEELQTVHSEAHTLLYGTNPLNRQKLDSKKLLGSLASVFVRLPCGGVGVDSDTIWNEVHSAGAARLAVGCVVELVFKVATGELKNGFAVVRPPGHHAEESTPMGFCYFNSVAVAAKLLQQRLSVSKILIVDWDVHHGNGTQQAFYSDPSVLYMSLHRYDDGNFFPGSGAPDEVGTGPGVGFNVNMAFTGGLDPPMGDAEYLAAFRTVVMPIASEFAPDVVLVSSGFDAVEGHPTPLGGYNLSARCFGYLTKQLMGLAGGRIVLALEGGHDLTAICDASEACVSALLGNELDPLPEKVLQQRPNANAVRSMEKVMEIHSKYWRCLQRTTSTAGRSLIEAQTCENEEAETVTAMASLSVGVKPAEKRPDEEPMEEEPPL
Sequence of HDAC5 (Q9UQL6 whole entry, species assumed): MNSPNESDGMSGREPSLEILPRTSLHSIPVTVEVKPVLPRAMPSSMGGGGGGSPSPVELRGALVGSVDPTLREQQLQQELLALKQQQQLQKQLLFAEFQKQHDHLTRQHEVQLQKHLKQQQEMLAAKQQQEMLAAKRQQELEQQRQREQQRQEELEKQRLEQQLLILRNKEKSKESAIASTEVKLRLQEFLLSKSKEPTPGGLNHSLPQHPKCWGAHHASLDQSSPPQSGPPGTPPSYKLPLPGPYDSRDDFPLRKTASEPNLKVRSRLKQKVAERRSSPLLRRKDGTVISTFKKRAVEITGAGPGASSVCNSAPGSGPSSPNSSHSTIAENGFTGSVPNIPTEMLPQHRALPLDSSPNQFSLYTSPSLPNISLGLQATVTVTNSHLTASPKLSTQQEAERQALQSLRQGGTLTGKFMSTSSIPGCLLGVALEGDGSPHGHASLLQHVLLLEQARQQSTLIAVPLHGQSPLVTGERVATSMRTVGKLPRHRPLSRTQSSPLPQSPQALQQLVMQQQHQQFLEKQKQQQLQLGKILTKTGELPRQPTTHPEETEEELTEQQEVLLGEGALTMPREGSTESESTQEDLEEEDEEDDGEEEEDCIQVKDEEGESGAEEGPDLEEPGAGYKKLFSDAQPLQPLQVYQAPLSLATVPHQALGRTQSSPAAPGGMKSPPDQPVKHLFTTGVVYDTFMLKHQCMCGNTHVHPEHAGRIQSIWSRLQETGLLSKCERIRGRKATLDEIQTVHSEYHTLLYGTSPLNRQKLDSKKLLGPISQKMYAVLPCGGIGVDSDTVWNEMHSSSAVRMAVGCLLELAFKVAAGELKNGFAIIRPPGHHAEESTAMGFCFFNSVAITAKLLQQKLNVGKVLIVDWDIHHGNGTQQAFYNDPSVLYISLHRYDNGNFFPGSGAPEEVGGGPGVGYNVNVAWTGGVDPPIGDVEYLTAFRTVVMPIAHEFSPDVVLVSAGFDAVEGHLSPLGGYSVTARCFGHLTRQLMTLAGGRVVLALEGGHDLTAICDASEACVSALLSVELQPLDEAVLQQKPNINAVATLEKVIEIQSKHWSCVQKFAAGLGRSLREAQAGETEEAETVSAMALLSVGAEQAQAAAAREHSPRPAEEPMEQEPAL

On to `Cc1ccc(NC(=O)CCCCCC(=O)Nc2ccccc2N)cc1` [4b], for which the IC50 on CYP3A4 was more than 10 µM; in the data set on Hct116 cells it was 10 µM; on CYP2D6, more than 10 µM. Besides, in the data set with Hct116 cells (read-out: EC50 for inhibition of proliferation of Hct116 cells), the EC50 was 10 µM. The “improvement of the metabolic deficit of STHdhQ111 cells, in words” value in the data set on STHdhQ111 striatal cells is given as “significantly improved the metabolic deficit”. Also, the “reversal of gene expression deficits (Vdr, Dhrs4), in words” value in data set [1] was “effective at reversing gene expression deficits”. The “activity against the class II HDACs, HDAC 4, 5 and 7” value in data set [2] is given as “essentially no activity”.
`Cc1ccc(C(=O)NCCCCCC(=O)Nc2ccc(F)cc2N)cc1` [compound 136]: the IC50 in the data set on IMR90 cells is more than 50 µM; on HDAC2 (read-out: IC50 for Class I HDAC enzymes: HDAC2, Table 1) it was 3 µM; in the data set with Hct116 cells it was 40 µM; on CYP2D6, more than 10 µM; on HDAC8, 13.2 µM; at HDAC5, more than 180 µM. Further, the IC50 on HDAC7 and at HDAC4 was more than 180 µM each time. Further, the “reversal of expression of genes relevant to HD, in words” value in data set [3] (150 mg/kg s.c. three days, striatum) is “most effective”. The “genes whose expression deficits were corrected, of 13 tested” value in [3] (qRT-PCR) is recorded as “eight of the 13 genes tested”. Further, in the data set with STHdhQ111 striatal cells, the “improvement of the metabolic deficit of STHdhQ111 cells, in words” value is “significantly improved the metabolic deficit”.
With `Nc1ccc(-c2cccs2)cc1NC(=O)CCCCCCNC(=O)c1cccnc1` [compound 233], the IC50 on CYP3A4 was 0.11 µM; at HDAC2 (read-out: HDAC2 IC50, Table 2), 0.07 µM; on CYP2D6, more than 10 µM.
